# From patent US20240228474A1, “ANTIBACTERIAL COMPOUND” (DISCUVA LIMITED, priority 2021, published 2024)
# Tested on: Klebsiella pneumoniae ATCC 43816
# Assay: Further murine respiratory infection study, intravenous infusion
# Format: in vivo
# Settings: 26 h
# Procedure: Compound (I) was evaluated in further proof-of-concept studies in murine models for the treatment of a respiratory infection with Gram-negative bacteria of the order Enterobacterales, and a urinary tract infection with Gram-negative bacteria of the order Enterobacterales. Each dot, triangle or square indicator represents a single mouse. LOD refers to the limit of detection of the bacteria. […] Each of the proof-of-concept studies was carried out separately. By vehicle is meant pharmaceutically acceptable excipient or carrier. For the further proof-of-concept study for the treatment of a respiratory infection caused or exacerbated by Gram-negative bacteria of the order Enterobacterales, male CD-1 mice were infected with Klebsiella pneumoniae ATCC 43816. Two hours after infection (‘pre-treatment’ in FIG. 5), mice were either treated with a vehicle control (phosphate buffer) containing no compound (I), or a vehicle (phosphate buffer) containing compound (I), administered by intravenous infusion for 1 hour (QD) with a dose of 20 mg/kg of compound (I). For the mice that received the vehicle control containing no compound (I), and some mice who received the vehicle containing compound (I), an additional 1-hour continuous intravenous infusion was administered 3 hours after the time at which the first administration begun (BID, 3 hrs apart).
# [1] = 1 h IV infusion 20 mg/kg twice (BID, 3 hrs apart)
smiles,measurement,setting,value
"Cc1cnccc1-c1[nH]c(N)nc1-c1ccc2c(c1)N(C(=O)C(C)(C)N)CCO2 [Compound (I), 2-amino-1-(6-(2-amino-5-(3-methylpyridin-4-yl)-1H-imidazol-4-yl)-2,3-dihydro-4H-benzo[b][1,4]oxazin-4-yl)-2-methylpropan-1-one]",reduction of bacterial burden in the lung compared to pre-treatment (stasis levels),1 h IV infusion 20 mg/kg once (QD),0.95 log
same,reduction of bacterial burden in the lung compared to pre-treatment (stasis levels),[1],1.80 log
same,reduction of bacterial burden in the lung compared to vehicle,[1],5.20 log
same,reduction of bacterial burden in the lung compared to vehicle,"male CD-1 mice, 1 h IV infusion 20 mg/kg once (QD)",4.35 log
